Measured values published in patent US20090123543A1, “PHARMACEUTICAL COMPOSITIONS” (priority 2006, published 2009).

Assay: Comparative physical (blend) properties of valsartan and valsartan granules
Assay type: physicochemical
Description: Valsartan was added to molten Lutrol F127 (at about 60-65° C.) under continuous mixing till a uniform semi-solid mixture was obtained. Weighed quantity of microcrystalline cellulose was added to the molten semi-solid mixture under continuous mixing. The blend was then allowed to cool to room temperature and the cooled mass was crushed and passed through 20# sieve.

Bulk density (blend property): 0.12 g/mL | Flow (flow through funnel/orifice): as valsartan did not flow
SMILES: CCCCC(=O)N(Cc1ccc(-c2ccccc2-c2nnn[nH]2)cc1)[C@H](C(=O)O)C(C)C [Valsartan]
